In US20080038809A1, “ISOLATED LECTIN POLYPEPTIDES CONSISTING OF TRUNCATED […] UDP-GalNAc:POLYPEPTIDE N- ACETYLGALACTOSAMINYLTRANSFERASES” (GLYCOZYM APS, priority 2002, published 2008):
“Also recorded” adds a separate entry of the source.

Tests used:
[1] = system: MUC1 in CHO1d1D/MUC1F-clone2 cells; experiment: MUC1 expression in cell lysates, immunoprecipitation and SDS-PAGE western blot (FIGS. 12-15); assay type: cell-based, Chinese Hamster; details: 2 mM; for SDS-PAGE migration of MUC1 (O-glycosylation): cells grown in Gal and GalNAc
Procedure: FIG. 12 is an SDS-PAGE Western analysis of GalNAcα-benzyl inhibition of MUC1 expression in CHO 1d1D cells stably transfected with a full coding MUC1 construct. […] Cells were further treated with 2 mM GalNAcα-benzyl (lanes 1, 4, 7, 10), 2 mM GlcNAcα-benzyl (lanes 2, 5, 8, 11) or no inhibitor (lanes 3, 6, 9, 12). Cells were washed and lysed at 24 or 48 hours and the lysates subjected to immunoprecipitation with monoclonal antibody HMFG2, which broadly recognize MUC1 glycoforms. Immunoprecipitates were analysed by SDS-PAGE and western blot using HMFG2 antibody to detect MUC1 expression. Lane M indicates molecular markers with assigned mw. Lane C includes a control MUC1 180-mer tandem repeat peptide which has been GalNAc-glycosylated with 3 moles GalNAc per repeat using GalNAc-T2. The sharp bands migrating at 100-200 kd are immunoglobulins indicated by IgG.
Cells were further treated with 2 mM GalNAcα-benzyl (lanes 1, 4, 7, 10), 2 mM GalNAcβ-benzyl (lanes 2, 5, 8, 11) or 2 mM GlcNAcα-benzyl (lanes 3, 6, 9, 12). Cells were washed and lysed at 36 hours and the lysates subjected to immunoprecipitation with monoclonal antibodies HMFG2 (lanes 1-6) or 5E5 (lanes 7-12). Immunoprecipitates were analysed by SDS-PAGE and western blot using HMFG2 antibody. Lanes M and C as described in legend to FIG. 7.
We next analysed the expression of MUC1 produced by CHO1d1D/MUC1F-clone2 cells by SDS-PAGE western analysis. […] Cells were further treated with 2 mM GalNAcα-benzyl, GlcNAcα-benzyl or no inhibitor. Cells were washed and lysed at 24 or 48 hours and the lysates subjected to immunoprecipitation with monoclonal antibody HMFG2, which broadly recognize MUC1 glycoforms. Immunoprecipitates were analysed by SDS-PAGE and western blot using HMFG2 antibody to detect MUC1 expression. […] In striking contrast, treatment with GalNAcα-benzyl had significant effect after 48 hours. […] This indicates some heterogeneity in glycosylation.
As shown in Examples 2 and 3, polypeptide GalNAc-transferases contain lectin domains with binding properties for GalNAc-peptides including GalNAc-MUC1 peptides. […] GalNAcβ-benzyl, the β-anomeric configuration of GalNAc-benzyl (there is a β linkage between the N-acetylgalactosamine and the benzyl ring), was custom synthesized by Alberta Research Council (Canada), and its structure was confirmed by mass spectrometry and ^1H-NMR. […] Cells were then treated with 2 mM GalNAcα-benzyl, GalNAcβ-benzyl, or GlcNAcα-benzyl as control (GlcNAcα-benzyl was shown in Example 4 to have no effect). Cells were washed and lysed as described above after 36 hours and the lysates subjected to immunoprecipitation with anti-MUC1 monoclonal antibodies HMFG2 or 5E5. […] FIG. 15 illustrates the same experiment as in FIG. 14 except that the detection antibody is 5E5 and only Tn and STn MUC1 glycoforms are visualised.

[2] = system: cell surface expression of MUC1 in CHO1d1D/MUC1F-clone2 cells; experiment: Cell surface expression of MUC1 by immunofluorescence; assay type: cell-based, Chinese hamster (CHO 1d1D cells); human MUC1; details: 1 mM, cells grown in GalNAc
Procedure: FIGS. 11A-D are a series of photomicrographs (left to right from top to bottom of) anti-MUC1 antibody immunofluorescence staining of CHO 1d1D cells stably transfected with a full coding cell surface MUC1 (CHO1d1D/MUC1F-clone2). Cell grown in the presence of GalNAc were treated with the O-glycosylation inhibitor GalNAcα-benzyl or control GlcNAcα-benzyl. Cells were grown in plates and stained without permeabilization as described in Example 4.
We therefore investigated the effect of treatment with GalNAcα-benzyl of CHO1d1D/MUC1F-clone2 cells grown in the presence of GalNAc. CHO1d1D/MUC1F-clone2 cells were seeded in 6 well plates at a density of 0.2×10^6 per well and were grown for 6 hours in Hams F12 medium with serum until approximately 30% subconfluent. […] After 18 hours, the medium was replaced with fresh Optimem containing the sugars and benzyl derivatives as above and grown for 12-48 hours. Initially we analyzed surface expression of MUC1 by immunocytology. Cells were washed once in PBS-CMF (phosphate buffered saline Calcium and Magnesium free) after carefully removing the medium from the wells and subsequently fixed in 2 ml 3% paraformaldehyde at 25° C. for 20 min followed by three washes with PBS-CMF 3 times. […]

SMILES	MUC1 expression ([1]; 24 hours, HMFG2 blot)	MUC1 expression ([1]; 36 hours, 5E5 blot (FIG. 15))	MUC1 expression ([1]; 36 hours, HMFG2 blot (FIG. 14))	MUC1 expression ([1]; 48 hours, HMFG2 blot, cells grown in GalNAc or Gal and GalNAc)	SDS-PAGE migration of MUC1 (O-glycosylation) ([1]; 48 hours, listed as GalNAcα-benzyl)	inhibition of cell surface expression of MUC1 [2]	SDS-PAGE migration of MUC1 (O-glycosylation) ([1]; 36 hours)
CC(=O)N[C@H]1[C@@H](OCc2ccccc2)O[C@H](CO)[C@H](O)[C@@H]1O [BzlαGalNAc, benzyl-N-acetyl-alpha-D-galactosaminide]	no significant effect	strong inhibition	significant reduction	significant reduction	significant shift in migration; also recorded: marked shift in migration	–	–
CC(=O)N[C@H]1[C@@H](OCc2ccccc2)O[C@H](CO)[C@H](O)[C@@H]1O [GalNAcα-benzyl, benzyl-N-acetyl-alpha-D-galactosaminide]	–	–	–	–	–	strong inhibition of cell surface expression of MUC1	–
CC(=O)N[C@H]1[C@H](OCc2ccccc2)O[C@H](CO)[C@H](O)[C@@H]1O [GalNAcβ-benzyl]	–	strong inhibition; also recorded: same or better reduction	significant reduction; also recorded: same or better reduction	–	–	–	does not interfere with O-glycosylation; also recorded: no change in the migration
CC(=O)N[C@H]1[C@@H](OCc2ccccc2)O[C@H](CO)[C@@H](O)[C@@H]1O [GlcNAcα-benzyl]	–	–	–	–	–	no inhibition	–
